Where a name gives a salt, the structure may show the parent alone. Read-outs that look alike come from different tables or passages of the source.
Key:
NR1a/NR2B = NR1a/NR2B (Rattus norvegicus, UniProt P35439+Q00960); assay: Electrophysiological assay at NMDA receptor subunits expressed in Xenopus oocytes (two-electrode voltage clamp); assay type: cell-based
Protocol: The clones were transformed into appropriate host bacteria and plasmid preparations were made with conventional DNA purification techniques. A sample of each clone was linearized by restriction enzyme digestion […] was synthesized with T3 RNA polymerase. The cRNA was diluted to 400 ng/μL and stored in 1 μL aliquots at −80° C. until injection.
The Xenopus Oocyte Expression System. […] Follicle-enclosed oocytes were micro-injected with 1:1 mixtures of NR1A:NR2A, 2B or 2C.; injecting 1 to 10 ng of RNA encoding each receptor subunit. NR1A encoding RNA was injected alone at ˜20 ng. Oocytes were stored in Barth's medium containing (in mM): NaCl, 88; KCl, 1; CaCl2, 0.41; Ca (NO3)2, 0.33; MgSO4, 0.82; NaHCO3, 2.4; HEPES 5, pH 7.4, with 0.11 mg/ml gentamicin sulphate. While oocytes were still surrounded by enveloping ovarian tissues, the Barth's medium was supplemented with 0.1% bovine serum.
Drugs were applied by bath perfusion. Using oocytes expressing different subunit combinations of NMDA receptor, NMDA currents were activated by co-application of glutamate (100 μM) and glycine (1-100 μM). Inhibitory potency of the novel antagonists was assessed on responses elicited by fixed concentrations of glutamate and glycine, by measuring reductions in current induced by progressively increasing concentrations of antagonist.
Concentration-inhibition curves were fit with Equation 1. […] For incomplete curves analysis by fitting was unreliable and IC50 values were calculated by simple regression over linear portions of the curves (Origin: Microcal Software).

[1] = Table 3, cloned rat NMDA receptor subunits in Xenopus oocytes, read-out: NR1a/NR2B Oocyte IC50
[2] = Table 2, head names no subunit, electrophysiological assay results, read-out: IC50
[3] = Table 1, cloned rat NMDA receptor subunits in Xenopus oocytes, currents activated by glutamate (100 μM) and glycine (1-100 μM), read-out: NR1a/NR2B Oocyte IC50

NR1a/NR2B, sequence (Q00960 27-1482, other chains not shown): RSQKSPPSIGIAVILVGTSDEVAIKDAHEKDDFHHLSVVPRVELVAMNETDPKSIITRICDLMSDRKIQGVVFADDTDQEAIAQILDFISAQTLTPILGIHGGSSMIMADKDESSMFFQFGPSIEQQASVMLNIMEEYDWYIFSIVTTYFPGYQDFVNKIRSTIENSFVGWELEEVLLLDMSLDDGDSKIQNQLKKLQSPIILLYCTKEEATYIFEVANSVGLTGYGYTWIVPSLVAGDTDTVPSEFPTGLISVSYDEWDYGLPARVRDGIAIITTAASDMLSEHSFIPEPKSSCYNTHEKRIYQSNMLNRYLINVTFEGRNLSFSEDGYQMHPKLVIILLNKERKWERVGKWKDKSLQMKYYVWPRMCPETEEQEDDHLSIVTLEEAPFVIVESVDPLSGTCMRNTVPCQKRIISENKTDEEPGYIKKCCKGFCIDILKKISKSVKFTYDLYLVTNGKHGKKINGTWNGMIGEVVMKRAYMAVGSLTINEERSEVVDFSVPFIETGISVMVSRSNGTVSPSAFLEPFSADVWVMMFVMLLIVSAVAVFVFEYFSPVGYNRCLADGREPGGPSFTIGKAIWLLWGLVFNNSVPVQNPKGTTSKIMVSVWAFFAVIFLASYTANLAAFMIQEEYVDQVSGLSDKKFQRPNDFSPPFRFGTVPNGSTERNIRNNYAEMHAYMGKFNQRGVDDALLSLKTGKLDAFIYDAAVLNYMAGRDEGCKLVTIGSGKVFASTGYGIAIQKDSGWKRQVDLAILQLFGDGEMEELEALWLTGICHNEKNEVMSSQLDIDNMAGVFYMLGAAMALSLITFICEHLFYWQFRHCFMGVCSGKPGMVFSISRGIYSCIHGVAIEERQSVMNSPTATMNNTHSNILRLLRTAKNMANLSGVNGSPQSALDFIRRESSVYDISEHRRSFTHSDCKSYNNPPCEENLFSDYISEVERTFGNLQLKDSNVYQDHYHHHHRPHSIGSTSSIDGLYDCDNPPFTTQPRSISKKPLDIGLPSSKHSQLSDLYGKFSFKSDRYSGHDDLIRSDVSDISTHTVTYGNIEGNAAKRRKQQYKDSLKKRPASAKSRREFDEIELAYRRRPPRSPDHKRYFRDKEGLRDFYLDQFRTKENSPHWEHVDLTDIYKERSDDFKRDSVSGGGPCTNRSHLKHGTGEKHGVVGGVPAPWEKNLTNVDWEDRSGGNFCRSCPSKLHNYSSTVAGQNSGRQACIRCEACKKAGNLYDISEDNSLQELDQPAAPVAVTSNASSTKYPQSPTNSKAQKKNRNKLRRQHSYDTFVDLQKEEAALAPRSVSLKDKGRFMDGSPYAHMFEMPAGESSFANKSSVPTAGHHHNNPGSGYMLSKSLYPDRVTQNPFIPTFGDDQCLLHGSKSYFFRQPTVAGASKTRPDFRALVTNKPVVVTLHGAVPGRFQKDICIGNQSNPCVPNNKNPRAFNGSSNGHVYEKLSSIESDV

| SMILES | IC50 (NR1a/NR2B; [2]) | melting point | further results |
| --- | --- | --- | --- |
| Oc1ccc([C@H]2CC[C@@H](NCc3cccnc3)CC2)cc1 [Example 7a, cis-4-{4-[(Pyridin-3-ylmethyl)amino]cyclohexyl}phenol] | – | – | IC50 (NR1a/NR2B; [1]): 135 µM |
| Oc1ccc([C@H]2CC[C@H](NCCNc3ccccc3)CC2)cc1 [Example 25, Trans-4-[4-(2-phenylaminoethylamino)cyclohexyl]phenol] | 0.05 µM | – | – |
| Oc1ccc([C@H]2CC[C@H](NCCNc3ccccc3)CC2)cc1 (as salt: maleate) [Example 25, Trans-4-[4-(2-phenylaminoethylamino)cyclohexyl]phenol] | – | 180 to 184 °C | – |
| CC(CCc1ccccc1)N[C@H]1CC[C@@H](c2ccc(O)cc2)CC1 (stereo partly drawn) [Example 6a, cis-4-[4-(1-Methyl-3-phenylpropylamino)cyclohexyl]phenol] | 0.6 µM | – | – |
| Oc1ccc([C@H]2CC[C@H](NCCc3ccccc3)CC2)cc1 [Example 3b, trans-4-(4-Phenethylamiocyclohexyl)phenol] | – | – | IC50 (NR1a/NR2B; [3]): 0.45 µM |
| CC(=O)N(CCCc1ccccc1)[C@H]1CC[C@H](c2ccc(O)cc2)CC1 [Example 17, trans-N-[4-(4-Hydroxyphenyl)cyclohexyl]-N-(3-phenylpropyl)acetamide] | 4.4 µM | 175 to 180 °C | – |
| Oc1ccc([C@H]2CC[C@@H](NCc3ccccc3)CC2)cc1 [Example 4a, cis-4-(4-Benzylaminocyclohexyl)phenol] | – | 107 to 110 °C | IC50 (NR1a/NR2B; [3]): 70 µM |
| Oc1ccc([C@H]2CC[C@H](N(CCCc3ccccc3)Cc3ccccc3)CC2)cc1 (as salt: HCl) [Example 29, 4-{4-[benzyl(3-phenylpropyl)amino]cyclohexyl}phenol] | – | 259 to 264 °C | – |
| CCN(CCCc1ccccc1)[C@H]1CC[C@H](c2ccc(O)c(CN)c2)CC1 (as salt: HCl) [Example 31, 2-aminomethyl-4-{4-[ethyl(3-phenylpropyl)amino]cyclohexyl}phenol] | – | 168 to 173 °C | – |
| CN(CCOc1ccccc1)[C@H]1CC[C@H](c2ccc(O)cc2)CC1 (as salt: salt) [Example 30, 4-{4-[methyl(2-phenoxyethyl)amino]cyclohexyl}phenol] | – | 216 to 220 °C | – |
| Oc1ccc([C@H]2CC[C@H](NCCOc3ccccc3)CC2)cc1 [Example 11b, trans-4-[4-(2-Phenoxyethylamino)cyclohexyl]phenol] | 0.02 µM | – | – |
| Oc1ccc([C@H]2CC[C@H](NCCCCc3ccccc3)CC2)cc1 [Example 1b, trans-4-[4-(4-Phenylbutylamino)cyclohexyl]phenol] | – | – | IC50 (NR1a/NR2B; [3]): 0.035 µM |
| Oc1ccc([C@H]2CC[C@H](NCCCCCc3ccccc3)CC2)cc1 (as salt: HCl) [Example 9, 4-[4-(5-Phenylpentylamino)cyclohexyl]phenol] | – | 252 to 260 °C | – |
| OC[C@@H](Cc1ccccc1)N[C@H]1CC[C@@H](c2ccc(O)cc2)CC1 [Example 10a, cis-4-[4-((R)-1-Hydroxymethyl-2-phenylethylamino)cyclohexyl]phenol] | 29 µM | – | – |
| Oc1ccc([C@H]2CC[C@H](NCCCCCc3ccccc3)CC2)cc1 [Example 9, 4-[4-(5-Phenylpentylamino)cyclohexyl]phenol] | – | – | IC50 (NR1a/NR2B; [3]): 0.35 µM |
| Oc1ccc([C@H]2CC[C@@H](NCCCCc3ccccc3)CC2)cc1 [Example 1a, cis-4-[4-(4-Phenylbutylamino)cyclohexyl]phenol] | – | 128 to 131 °C | IC50 (NR1a/NR2B; [3]): 0.9 µM |
| Oc1ccc([C@H]2CC[C@H](NCCCc3ccccc3)CC2)cc1 [Example 2b, trans-4-[4-(3-Phenylpropylamino)cyclohexyl]phenol] | – | – | IC50 (NR1a/NR2B; [3]): 0.034 µM |
| CC(CCc1ccccc1)N[C@H]1CC[C@H](c2ccc(O)cc2)CC1 (stereo partly drawn) [Example 6b, trans-4-[4-(1-Methyl-3-phenylpropylamino)cyclohexyl]phenol] | 0.1 µM | – | – |
| Oc1ccc([C@H]2CC[C@H](NCc3cccnc3)CC2)cc1 [Example 7b, trans-4-{4-[(Pyridin-3-ylmethyl)amino]cyclohexyl}phenol] | – | – | IC50 (NR1a/NR2B; [1]): 100 µM |
| Oc1ccc([C@H]2CC[C@@H](NCCCc3ccccc3)CC2)cc1 [Example 2a, cis-4-[4-(3-Phenylpropylamino)cyclohexyl]phenol] | – | – | IC50 (NR1a/NR2B; [3]): 0.6 µM |

| SMILES | IC50 (NR1a/NR2B; [2]) | melting point | further results |
| --- | --- | --- | --- |
| O=C(CCc1ccccc1)N[C@H]1CC[C@H](c2ccc(O)cc2)CC1 [Example 21, Trans-N-[4-(4-Hydroxyphenyl)cyclohexyl]-3-phenylpropionamide] | 0.07 µM | 201 to 206 °C | – |
| Oc1ccc([C@H]2CC[C@H](NCc3ccccc3)CC2)cc1 [Example 4b, trans-4-(4-Benzylaminocyclohexyl)phenol] | – | 168 to 172 °C | IC50 (NR1a/NR2B; [3]): 43 µM |
| Oc1ccc([C@H]2CC[C@H](NCC#Cc3ccccc3)CC2)cc1 [Example 23, Trans-4-[4-(3-phenylprop-2-ynylamino)cyclohexyl]phenol] | 0.05 µM | – | – |
| CC(C)(Oc1ccccc1)C(=O)N[C@H]1CC[C@H](c2ccc(O)cc2)CC1 [Example 22, Trans-N-[4-(4-Hydroxyphenyl)cyclohexyl]-2-methyl-2-phenoxy-propionamide] | 301 µM | 114 to 117 °C | – |
| Oc1ccc([C@H]2CC[C@@H](NCCCc3ccccn3)CC2)cc1 [Example 15a, cis-4-[4-(3-Pyridin-2-ylpropylamino)cyclohexyl]phenol] | – | – | IC50 (NR1a/NR2B; [1]): 11.5 µM |
| OC[C@@H](Cc1ccccc1)N[C@H]1CC[C@H](c2ccc(O)cc2)CC1 [Example 10b, trans-4-[4-((R)-1-Hydroxymethyl-2-phenylethylamino)cyclohexyl]phenol] | 5 µM | – | – |
| CC(C)N(CCCc1ccccc1)[C@H]1CC[C@H](c2ccc(O)cc2)CC1 (as salt: salt) [Example 27, Trans-4-{4-[N-isopropyl-N-(3-phenylpropyl)amino]cyclohexyl}phenol] | – | 146 to 154 °C | – |
| CC(=O)N(Cc1ccccc1)[C@H]1CC[C@H](c2ccc(O)cc2)CC1 [Example 16, trans-N-Benzyl-N-[4-(4-hydroxyphenyl)cyclohexyl]acetamide] | 200 µM | 227 to 235 °C | – |
| Oc1ccc([C@H]2CC[C@H](NCCc3ccc(F)cc3)CC2)cc1 [Example 5b, trans-4-{4-[2-(4-Fluorophenyl)ethylamino]cyclohexyl}phenol] | – | – | IC50 (NR1a/NR2B; Table 4, cloned rat NMDA receptor subunits in Xenopus oocytes, read-out: NR1a/NR2B Oocyte IC50): 0.75 µM |
| COC(=O)N(Cc1ccccc1)[C@H]1CC[C@H](c2ccc(O)cc2)CC1 [Example 19, Trans-N-benzyl-N-[4-(4-hydroxyphenyl)cyclohexyl]carbamic acid methyl ester] | 240 µM | 61 to 66 °C | – |
| COC(=O)N(CCCc1ccccc1)[C@H]1CC[C@H](c2ccc(O)cc2)CC1 [Example 18, Trans-N-[4-(4-Hydroxyphenyl)cyclohexyl]-N-(3-phenylpropyl)carbamic acid methyl ester] | 0.05 µM | 128 to 133 °C | – |
| CCN(CCCc1ccccc1)[C@H]1CC[C@H](c2ccc(O)cc2)CC1 (as salt: salt) [Example 26, Trans-4-{4-[N-ethyl-N-(3-phenylpropyl)amino]cyclohexyl) phenol] | – | 192 to 194 °C | – |
| C[C@@H](Cc1ccccc1)N[C@H]1CC[C@H](c2ccc(O)cc2)CC1 [Example 13, trans-4-[4-((S)-1-Methyl-2-phenylethylamino)cyclohexyl]phenol] | 16 µM | 183 to 187 °C | – |
| C[C@@H](CCc1ccccc1)N[C@H]1CC[C@H](c2ccc(O)cc2)CC1 [Example 6d, trans-4-[4-((S)-1-Methyl-3-phenylpropylamino)cyclohexyl]phenol] | 0.07 µM | 165 to 170 °C | – |
| COc1ccc(CCCN[C@H]2CC[C@H](c3ccc(O)cc3)CC2)cc1 (as salt: HCl) [Example 28, Trans-4-{4-[3-(4-methoxyphenyl)propylamino]cyclohexyl}phenol] | – | 235 to 241 °C | – |
| Oc1ccc([C@H]2CC[C@H](NCCCc3ccccn3)CC2)cc1 [Example 15b, trans-4′-(3-Pyridin-2-ylpropylamino)cyclohexylphenol] | – | – | IC50 (NR1a/NR2B; [1]): 0.53 µM |
| C[C@H](CCc1ccccc1)N[C@H]1CC[C@H](c2ccc(O)cc2)CC1 [Example 6c, trans-4-[4-((R)-1-Methyl-3-phenylpropylamino)cyclohexyl]phenol] | 0.06 µM | 152 to 160 °C | – |
| Oc1ccc([C@H]2CC[C@@H](NCCOc3ccccc3)CC2)cc1 [Example 11a, cis-4-[4-(2-Phenoxyethylamino)cyclohexyl]phenol] | 2 µM | – | – |
| Oc1ccc([C@H]2CC[C@H](NCCSc3ccccc3)CC2)cc1 [Example 24, 4-[4-(2-Phenylsulfanylethylamino)cyclohexyl]phenol] | 0.04 µM | – | – |
| Oc1ccc([C@H]2CC[C@@H](NCCc3ccccc3)CC2)cc1 [Example 3a, cis-4-(4-Phenethylaminocyclohexyl)phenol] | – | 155 to 160 °C | IC50 (NR1a/NR2B; [3]): 0.83 µM |
